The NIST ThermoML archive (doi:10.1021/je700140j)

Assay: refractive index (Na D-line) (dimensionless); xn = mol fraction of the nth substance listed
Details: 100.8 kPa, Liquid, Standard Abbe refractometry

OCc1ccccc1 [benzenemethanol] + CC(C)O
refractive index
Details	298.15 K	308.15 K	318.15 K
x2 = 0	1.53843	1.53421	1.52994
x2 = 0.05	1.53277	1.52858	1.52435
x2 = 0.1	1.52684	1.52268	1.51849
x2 = 0.15	1.5207	1.51654	1.51233
x2 = 0.2	1.5143	1.51019	1.50598
x2 = 0.25	1.50772	1.50359	1.49935
x2 = 0.3	1.50089	1.49674	1.4925
x2 = 0.35	1.49383	1.48966	1.48542
x2 = 0.4	1.48652	1.48234	1.47809
x2 = 0.45	1.47899	1.4748	1.47053
x2 = 0.5	1.47118	1.46698	1.46269
x2 = 0.55	1.4631	1.45889	1.45458
x2 = 0.6	1.45472	1.4505	1.44616
x2 = 0.65	1.44605	1.44182	1.43746
x2 = 0.7	1.43707	1.43283	1.42848
x2 = 0.75	1.42774	1.4235	1.41916
x2 = 0.8	1.41804	1.4138	1.40943
x2 = 0.85	1.40795	1.40368	1.39933
x2 = 0.9	1.39746	1.39319	1.38883
x2 = 0.95	1.38648	1.38219	1.3778

OCCc1ccccc1 [2-phenylethanol] + OCc1ccccc1
refractive index
Details	298.15 K	308.15 K	318.15 K
x2 = 0	1.53269	1.52852	1.52427
x2 = 0.05	1.53322	1.52911	1.52495
x2 = 0.1	1.53367	1.52961	1.52549
x2 = 0.15	1.5341	1.53006	1.52594
x2 = 0.2	1.53454	1.5305	1.52636
x2 = 0.25	1.53495	1.53089	1.52674
x2 = 0.3	1.53532	1.53125	1.5271
x2 = 0.35	1.53568	1.53159	1.52745
x2 = 0.4	1.53601	1.53193	1.52777
x2 = 0.45	1.53633	1.53225	1.52809
x2 = 0.5	1.53663	1.53255	1.52839
x2 = 0.55	1.53689	1.53281	1.52864
x2 = 0.6	1.53712	1.53304	1.52888
x2 = 0.65	1.53733	1.53325	1.5291
x2 = 0.7	1.53752	1.53344	1.52929
x2 = 0.75	1.53772	1.53362	1.52947
x2 = 0.8	1.53789	1.53377	1.52961
x2 = 0.85	1.53804	1.53391	1.52973
x2 = 0.9	1.53819	1.53403	1.52984
x2 = 0.95	1.53833	1.53414	1.52993

OCCc1ccccc1 [2-phenylethanol] + CC(C)O
refractive index
Details	298.15 K	308.15 K	318.15 K
x2 = 0	1.53269	1.52852	1.52427
x2 = 0.05	1.52795	1.52391	1.51972
x2 = 0.1	1.523	1.51896	1.51478
x2 = 0.15	1.5178	1.51375	1.50956
x2 = 0.2	1.51235	1.50826	1.50405
x2 = 0.25	1.50661	1.50253	1.49832
x2 = 0.3	1.50063	1.49652	1.49228
x2 = 0.35	1.49437	1.49025	1.48598
x2 = 0.4	1.4878	1.48365	1.47938
x2 = 0.45	1.48091	1.47673	1.47245
x2 = 0.5	1.47367	1.4695	1.46522
x2 = 0.55	1.46611	1.46193	1.45763
x2 = 0.6	1.45816	1.45395	1.44964
x2 = 0.65	1.44975	1.44553	1.4412
x2 = 0.7	1.44087	1.43664	1.4323
x2 = 0.75	1.43149	1.42725	1.4229
x2 = 0.8	1.42156	1.41733	1.41297
x2 = 0.85	1.411	1.40678	1.40239
x2 = 0.9	1.39973	1.39547	1.39112
x2 = 0.95	1.38776	1.38342	1.37903
